The subject of series [1] is Swiss male mice. Description: Formalin Test in Mice: Late Phase. Format: in vivo. Conditions: Mus musculus, sc, subcutaneous, t=-10 min before formalin 5%. The method, then: Formalin Test in Mice: Late Phase
Swiss male mice (IFFA-CREDO) at 22±3 grams on test day.
Room temperature: 24.5<T<24.8° C.
t=-10 minutes. Subcutaneous administration of drug at 1 mL/100 g body weight. Either as a solution in distilled water or suspension in an aqueous solution of hydroxypropylmethylcellulose 0.2% (v/v).
t=0 minutes. Formalin 5% in sterile saline (v/v) administered by intraplanatar injection (20 μL) into the left paw.
t=+15 minutes. Mouse placed in cylinder.
t=+25 minutes. Nociceptive reaction: number of times left paw is licked during the observation period.
(§1) Results: Mean±sem per group
(§2) Dunnett's test after analysis of variance (Anova one way).
Reference: S. Hunskaar, Journal of Neuroscience Methods, 1985;14:69-76.

A short description of series [2]: Rotarod Test in Mice (ataxic reaction). The settings on record: mouse, rotarod, sc; subcutaneous, t=-30 min. Format: in vivo, mouse. The method, then: (§3) Swiss male mice (IFFA-CREDO) at 22±3 grams on the test day.
(§4) Room temperature: 21.2±0.2° C.
(§5) Rotarod (Ugobasile) at 18 rotations per minute.
(§6) t=-180 minutes and t=-120 minutes: mice trained to stay on the bar at least 120 seconds before falling off.
(§7) t=-30 minutes: Subcutaneous administration of drug at 1 mL/100 g body weight as either solution in distilled water or suspension in an aqueous solution of hydroxypropylmethylcellulose 0.2% (v/v).
(§8) t=0 minutes: Ataxic reaction: time taken for mouse to fall off the rotarod (maximum time 120 seconds).
as §1, §2
Background: Falling from the rotarod earlier than controls is read as motor impairment.

Series [3] has as its system Swiss male mice. The series is described as follows: Rotarod Test in Mice (ataxic reaction). Format: in vivo, mouse. Conditions: subcutaneous, t=-30 min; ED50 of 10 mg/kg. The method, then:
as §3, §4, §5, §6, §7, §8, §1, §2

As a reminder, the ED50 is the dose at which the effect has come halfway, by size or by number of responders. In series [1], `CN(C(=O)Cc1cc2ccccc2o1)[C@H](CN1CCCC1)c1cccc(OCC(=O)O)c1` [Compound 15, (S)-(3-{1-[(Benzofuran-2-yl-acetyl)-methyl-amino]-2-pyrrolidin-1-yl-ethyl}-phenoxy)-acetic acid] yielded an ED50 of 2.95 mg/kg. Moreover, the ED50 at 0.5 h in series [2] is above 10 mg/kg. The “Mouse Rotarod percent effect (in parentheses beside ED50)” value (“Mouse Rotarod percent effect” for short) in series [3] was 0%.
In series [1], `CN(C(=O)Cc1cccc2occc12)[C@H](CN1CC[C@H](O)C1)c1cccc(OCC(=O)O)c1` [Compound 38] yielded an ED50 of 0.95 mg/kg. The ED50 at 0.5 h in series [2] was above 10 mg/kg. For the same compound, the “Mouse Rotarod percent effect” value in series [3] came to 0%.
On the same counts, the results for `CN(C(=O)Cc1coc2ccccc12)[C@H](CN1CC[C@H](O)C1)c1cccc(OCC(=O)O)c1` [Compound 28, [S-(R*,R*)]-{3-[1-[(Benzofuran-3-yl-acetyl)-methyl-amino]-2-(3-hydroxy-pyrrolidin-1-yl)-ethyl]-phenoxy}-acetic acid] are 0.36 mg/kg, around 10 mg/kg and 53%.
Consider `CN(C(=O)Cc1coc2ccccc12)[C@H](CN1CCCC1)c1cccc(OCC(=O)O)c1` [Compound 19, (S)-(3-{1-[(Benzofuran-3-yl-acetyl)-methyl-amino]-2-pyrrolidin-1-yl-ethyl}-phenoxy)-acetic acid], for which, in series [1], the ED50 came out at 1.17 mg/kg. Besides, the ED50 at 0.5 h in series [2] is above 10 mg/kg. For the same compound, in series [3], the “Mouse Rotarod percent effect” value was found to be 0%.
As for `CN(C(=O)Cc1cc2ccccc2o1)[C@H](CN1CC[C@H](O)C1)c1cccc(OCC(=O)O)c1` [Compound 33, [S-(R*,R*)]-{3-[1-[(Benzofuran-2-yl-acetyl)-methyl-amino]-2-(3-hydroxy-pyrrolidin-1-yl)-ethyl]-phenoxy}-acetic acid], in series [1], the ED50 stood at 0.19 mg/kg. Moreover, the ED50 at 0.5 h in series [2] was around 10 mg/kg. In addition, in series [3], the “Mouse Rotarod percent effect” value is on record as 53%.
In series [1], `CN(C(=O)Cc1ccc(S(C)(=O)=O)cc1)[C@H](CN1CC[C@H](O)C1)c1cccc(OCC(=O)O)c1` [Compound 43] yielded an ED50 of 0.51 mg/kg. In series [2], this compound had an ED50 at 0.5 h above 10 mg/kg. For the same compound, the “Mouse Rotarod percent effect” value in series [3] is reported as 0%.
Regarding `CN(C(=O)Cc1ccc(S(C)(=O)=O)cc1)[C@H](CN1CCCC1)c1cccc(OCC(=O)O)c1` [Compound 23], the ED50 in series [1] worked out at 6.1 mg/kg.

The values above are taken from patent publication US6057357A, “Peripherally selective kappa opioid agonists” (Warner-Lambert Company, priority 1999, dated 2000).
